Reference: ChEMBL document CHEMBL5303573, “Mapping human microbiome drug metabolism by gut bacteria and their genes” (Nature, 2019)
Non-standard residues stand in square brackets, D forms with d. Residues, ends and D or L forms follow the SMILES beside them. pGlu = O=C1CC[C@@H](C(=O)O)N1; Thz = O=C(O)[C@@H]1CSCN1

What was measured:
[1] = The drug is tested on Bacteroides fragilis strain: HMW615 for biotransformation. The drug concentrations were measured before and after a 12-h incubation by liquid-chromatography-coupled mass spectrometry (LC–MS); conditions: 2 µM
[2] = The drug is tested on Enterococcus faecalis strain: V583 for biotransformation. The drug concentrations were measured before and after a 12-h incubation by liquid-chromatography-coupled mass spectrometry (LC–MS); conditions: 2 µM
[3] = The drug is tested on Clostridium ramosum strain: DSM1402 for biotransformation. The drug concentrations were measured before and after a 12-h incubation by liquid-chromatography-coupled mass spectrometry (LC–MS); conditions: thomasclavelia ramosa, 2 µM
[4] = roseburia intestinalis, 12 h, 2 µM
Description: The drug is tested on Roseburia intestinalis strain: L1-82 for biotransformation. The drug concentrations were measured before and after a 12-h incubation by liquid-chromatography-coupled mass spectrometry (LC–MS)

[5] = The drug is tested on Providencia rettgeri strain: DSM1131 for biotransformation. The drug concentrations were measured before and after a 12-h incubation by liquid-chromatography-coupled mass spectrometry (LC–MS); format: ADME; set-up: dose 2 uM, timepoint 0 vs 12 hours; conditions: 2 µM
[6] = The drug is tested on Bifidobacterium breve strain: DSM20213 for biotransformation. The drug concentrations were measured before and after a 12-h incubation by liquid-chromatography-coupled mass spectrometry (LC–MS); conditions: 2 µM
[7] = The drug is tested on Blautia hansenii strain: DSM20583 for biotransformation. The drug concentrations were measured before and after a 12-h incubation by liquid-chromatography-coupled mass spectrometry (LC–MS); conditions: 2 µM
[8] = The drug is tested on Bacteroides xylanisolvens strain: DSM18836 for biotransformation. The drug concentrations were measured before and after a 12-h incubation by liquid-chromatography-coupled mass spectrometry (LC–MS); conditions: 2 µM
[9] = bacteroides thetaiotaomicron, 12 h, 2 µM
Description: The drug is tested on Bacteroides thetaiotaomicron strain: 3731 for biotransformation. The drug concentrations were measured before and after a 12-h incubation by liquid-chromatography-coupled mass spectrometry (LC–MS)

[10] = The drug is tested on Clostridium scindens strain: ATCC35704 for biotransformation. The drug concentrations were measured before and after a 12-h incubation by liquid-chromatography-coupled mass spectrometry (LC–MS); conditions: 2 µM
[11] = The drug is tested on Bacteroides fragilis strain: HMW610 for biotransformation. The drug concentrations were measured before and after a 12-h incubation by liquid-chromatography-coupled mass spectrometry (LC–MS); conditions: 2 µM
[12] = The drug is tested on Coprococcus comes strain: ATCC27758 for biotransformation. The drug concentrations were measured before and after a 12-h incubation by liquid-chromatography-coupled mass spectrometry (LC–MS); format: ADME; set-up: dose 2 uM, timepoint 0 vs 12 hours; conditions: 2 µM
[13] = The drug is tested on Anaerotruncus colihominis strain: DSM17241 for biotransformation. The drug concentrations were measured before and after a 12-h incubation by liquid-chromatography-coupled mass spectrometry (LC–MS); conditions: 2 µM
[14] = The drug is tested on Bacteroides coprophilus strain: DSM18228 for biotransformation. The drug concentrations were measured before and after a 12-h incubation by liquid-chromatography-coupled mass spectrometry (LC–MS); conditions: 2 µM
[15] = bacteroides intestinalis, 12 h, 2 µM
Description: The drug is tested on Bacteroides intestinalis strain: DSM17393 for biotransformation. The drug concentrations were measured before and after a 12-h incubation by liquid-chromatography-coupled mass spectrometry (LC–MS)

[16] = bacteroides thetaiotaomicron, 12 h, 2 µM; remark: listed apart in the source
Description: The drug is tested on Bacteroides thetaiotaomicron strain: 7330 for biotransformation. The drug concentrations were measured before and after a 12-h incubation by liquid-chromatography-coupled mass spectrometry (LC–MS)

[17] = The drug is tested on Bacteroides uniformis strain: ATCC8492 for biotransformation. The drug concentrations were measured before and after a 12-h incubation by liquid-chromatography-coupled mass spectrometry (LC–MS); conditions: 2 µM
[18] = The drug is tested on Parabacteroides merdae strain: ATCC43184 for biotransformation. The drug concentrations were measured before and after a 12-h incubation by liquid-chromatography-coupled mass spectrometry (LC–MS); conditions: 2 µM
[19] = limosilactobacillus reuteri cf48-3a, 12 h, 2 µM
Description: The drug is tested on Lactobacillus reuteri CF48-3A strain: BEI HM-102 for biotransformation. The drug concentrations were measured before and after a 12-h incubation by liquid-chromatography-coupled mass spectrometry (LC–MS)

[20] = The drug is tested on Clostridium sporogenes strain: ATCC15579 for biotransformation. The drug concentrations were measured before and after a 12-h incubation by liquid-chromatography-coupled mass spectrometry (LC–MS); conditions: 2 µM

CN(C)CCc1c[nH]c2ccc(Cn3cncn3)cc12.O=C(O)c1ccccc1 [RIZATRIPTAN BENZOATE]
Bacterial Biotransformation [1]: Compound NOT metabolized
Bacterial Biotransformation [2]: Compound NOT metabolized
Bacterial Biotransformation [3]: Compound NOT metabolized
Bacterial Biotransformation [4]: Compound NOT metabolized
Bacterial Biotransformation [5]: Compound NOT metabolized
Bacterial Biotransformation [6]: Compound NOT metabolized
Bacterial Biotransformation [7]: Compound NOT metabolized
Bacterial Biotransformation [8]: Compound NOT metabolized
Bacterial Biotransformation [9]: Compound NOT metabolized
Bacterial Biotransformation [10]: Compound NOT metabolized
Bacterial Biotransformation [11]: Compound NOT metabolized
Bacterial Biotransformation [12]: Compound NOT metabolized
Bacterial Biotransformation [13]: Compound NOT metabolized
Bacterial Biotransformation [14]: Compound metabolized

O=C1CC[C@@H](C(=O)N2CSC[C@H]2C(=O)O)N1 [PIDOTIMOD] ([pGlu]-[Thz]-OH)
Bacterial Biotransformation [1]: Compound metabolized
Bacterial Biotransformation [15]: Compound NOT metabolized
Bacterial Biotransformation [2]: Compound NOT metabolized
Bacterial Biotransformation [3]: Compound NOT metabolized
Bacterial Biotransformation [4]: Compound NOT metabolized
Bacterial Biotransformation [5]: Compound NOT metabolized
Bacterial Biotransformation [6]: Compound NOT metabolized
Bacterial Biotransformation [7]: Compound metabolized
Bacterial Biotransformation [16]: Compound metabolized
Bacterial Biotransformation [10]: Compound NOT metabolized
Bacterial Biotransformation [11]: Compound metabolized
Bacterial Biotransformation [12]: Compound NOT metabolized
Bacterial Biotransformation [13]: Compound NOT metabolized
Bacterial Biotransformation [14]: Compound metabolized
Bacterial Biotransformation [17]: Compound metabolized

O=C(CCCN1CCC2(CC1)C(=O)NCN2c1ccccc1)c1ccc(F)cc1 [SPIPERONE]
Bacterial Biotransformation [1]: Compound NOT metabolized
Bacterial Biotransformation [15]: Compound NOT metabolized
Bacterial Biotransformation [2]: Compound NOT metabolized
Bacterial Biotransformation [3]: Compound NOT metabolized
Bacterial Biotransformation [6]: Compound NOT metabolized
Bacterial Biotransformation [7]: Compound NOT metabolized
Bacterial Biotransformation [18]: Compound NOT metabolized
Bacterial Biotransformation [8]: Compound NOT metabolized
Bacterial Biotransformation [19]: Compound NOT metabolized
Bacterial Biotransformation [9]: Compound NOT metabolized
Bacterial Biotransformation [10]: Compound NOT metabolized
Bacterial Biotransformation [11]: Compound NOT metabolized
Bacterial Biotransformation [14]: Compound NOT metabolized
Bacterial Biotransformation [17]: Compound NOT metabolized

CCN1CCCC1CNC(=O)c1cc(S(N)(=O)=O)ccc1OC (centres undefined) [SULPIRIDE]
Bacterial Biotransformation [15]: Compound NOT metabolized
Bacterial Biotransformation [2]: Compound NOT metabolized
Bacterial Biotransformation [3]: Compound NOT metabolized
Bacterial Biotransformation [4]: Compound NOT metabolized
Bacterial Biotransformation [5]: Compound NOT metabolized
Bacterial Biotransformation [6]: Compound NOT metabolized
Bacterial Biotransformation [7]: Compound NOT metabolized
Bacterial Biotransformation [18]: Compound NOT metabolized
Bacterial Biotransformation [8]: Compound NOT metabolized
Bacterial Biotransformation [19]: Compound NOT metabolized
Bacterial Biotransformation [20]: Compound NOT metabolized
Bacterial Biotransformation [10]: Compound NOT metabolized
Bacterial Biotransformation [11]: Compound metabolized
Bacterial Biotransformation [12]: Compound NOT metabolized
Bacterial Biotransformation [13]: Compound NOT metabolized
Bacterial Biotransformation [17]: Compound NOT metabolized

CNS(=O)(=O)Cc1ccc2[nH]cc(CCN(C)C)c2c1.O=C(O)CCC(=O)O [SUMATRIPTAN SUCCINATE]
Bacterial Biotransformation [15]: Compound NOT metabolized
Bacterial Biotransformation [2]: Compound NOT metabolized
Bacterial Biotransformation [3]: Compound NOT metabolized
Bacterial Biotransformation [4]: Compound NOT metabolized
Bacterial Biotransformation [5]: Compound NOT metabolized
Bacterial Biotransformation [6]: Compound NOT metabolized
Bacterial Biotransformation [7]: Compound NOT metabolized
Bacterial Biotransformation [18]: Compound NOT metabolized
Bacterial Biotransformation [8]: Compound NOT metabolized
Bacterial Biotransformation [19]: Compound NOT metabolized
Bacterial Biotransformation [20]: Compound NOT metabolized
Bacterial Biotransformation [10]: Compound NOT metabolized
Bacterial Biotransformation [11]: Compound metabolized
Bacterial Biotransformation [12]: Compound NOT metabolized
Bacterial Biotransformation [13]: Compound NOT metabolized

CC(=O)OCC(=O)[C@@]1(O)[C@@H](C)C[C@H]2[C@@H]3CCC4=CC(=O)C=C[C@]4(C)[C@@]3(F)[C@@H](O)C[C@@]21C [BETAMETHASONE ACETATE]
Bacterial Biotransformation [1]: Compound metabolized
Bacterial Biotransformation [2]: Compound NOT metabolized
Bacterial Biotransformation [3]: Compound NOT metabolized
Bacterial Biotransformation [4]: Compound NOT metabolized
Bacterial Biotransformation [5]: Compound NOT metabolized
Bacterial Biotransformation [7]: Compound metabolized
Bacterial Biotransformation [16]: Compound metabolized
Bacterial Biotransformation [19]: Compound NOT metabolized
Bacterial Biotransformation [9]: Compound NOT metabolized
Bacterial Biotransformation [10]: Compound NOT metabolized
Bacterial Biotransformation [12]: Compound NOT metabolized
Bacterial Biotransformation [13]: Compound NOT metabolized
Bacterial Biotransformation [14]: Compound metabolized

O=C([O-])C[C@H](O)C[C@H](O)/C=C/c1c(C2CC2)nc2ccccc2c1-c1ccc(F)cc1.O=C([O-])C[C@H](O)C[C@H](O)/C=C/c1c(C2CC2)nc2ccccc2c1-c1ccc(F)cc1.[Ca+2] [PITAVASTATIN CALCIUM]
Bacterial Biotransformation [1]: Compound NOT metabolized
Bacterial Biotransformation [15]: Compound NOT metabolized
Bacterial Biotransformation [3]: Compound NOT metabolized
Bacterial Biotransformation [5]: Compound NOT metabolized
Bacterial Biotransformation [6]: Compound NOT metabolized
Bacterial Biotransformation [7]: Compound NOT metabolized
Bacterial Biotransformation [18]: Compound NOT metabolized
Bacterial Biotransformation [16]: Compound NOT metabolized
Bacterial Biotransformation [8]: Compound NOT metabolized
Bacterial Biotransformation [19]: Compound NOT metabolized
Bacterial Biotransformation [9]: Compound NOT metabolized
Bacterial Biotransformation [10]: Compound NOT metabolized
Bacterial Biotransformation [11]: Compound NOT metabolized
Bacterial Biotransformation [12]: Compound NOT metabolized
Bacterial Biotransformation [13]: Compound NOT metabolized
Bacterial Biotransformation [14]: Compound NOT metabolized
Bacterial Biotransformation [17]: Compound NOT metabolized

COc1cc2nc(N3CCN(C(=O)c4ccco4)CC3)nc(N)c2cc1OC [PRAZOSIN]
Bacterial Biotransformation [1]: Compound NOT metabolized
Bacterial Biotransformation [15]: Compound NOT metabolized
Bacterial Biotransformation [2]: Compound NOT metabolized
Bacterial Biotransformation [3]: Compound NOT metabolized
Bacterial Biotransformation [4]: Compound NOT metabolized
Bacterial Biotransformation [5]: Compound NOT metabolized
Bacterial Biotransformation [6]: Compound NOT metabolized
Bacterial Biotransformation [7]: Compound NOT metabolized
Bacterial Biotransformation [18]: Compound NOT metabolized
Bacterial Biotransformation [16]: Compound NOT metabolized
Bacterial Biotransformation [8]: Compound NOT metabolized
Bacterial Biotransformation [19]: Compound NOT metabolized
Bacterial Biotransformation [9]: Compound NOT metabolized
Bacterial Biotransformation [11]: Compound NOT metabolized
Bacterial Biotransformation [12]: Compound NOT metabolized
Bacterial Biotransformation [13]: Compound NOT metabolized
Bacterial Biotransformation [14]: Compound NOT metabolized
Bacterial Biotransformation [17]: Compound NOT metabolized

Cc1ccc(S(=O)(=O)NC(=O)NN2CCCCCC2)cc1 [TOLAZAMIDE]
Bacterial Biotransformation [1]: Compound metabolized
Bacterial Biotransformation [15]: Compound NOT metabolized
Bacterial Biotransformation [2]: Compound NOT metabolized
Bacterial Biotransformation [3]: Compound NOT metabolized
Bacterial Biotransformation [4]: Compound NOT metabolized
Bacterial Biotransformation [5]: Compound NOT metabolized
Bacterial Biotransformation [6]: Compound NOT metabolized
Bacterial Biotransformation [7]: Compound metabolized
Bacterial Biotransformation [16]: Compound metabolized
Bacterial Biotransformation [8]: Compound metabolized
Bacterial Biotransformation [9]: Compound metabolized
Bacterial Biotransformation [10]: Compound NOT metabolized
Bacterial Biotransformation [11]: Compound metabolized
Bacterial Biotransformation [12]: Compound NOT metabolized
Bacterial Biotransformation [13]: Compound NOT metabolized
Bacterial Biotransformation [14]: Compound metabolized
Bacterial Biotransformation [17]: Compound metabolized
